Test results reported in ChEMBL document CHEMBL4219190, “Studies on synthesis of novel pyrido[2,3-d]pyrimidine derivatives, evaluation of their antimicrobial activity and molecular docking” (Bioorg Med Chem Lett, 2018).
In brackets after ≈: the same amount, converted by molar mass. Activity calls are given as the source filed them. The calls are words filed in the database; no cut-off is given here.

Assays:
Bacillus subtilis [1] = experiment: Antibacterial activity against Bacillus subtilis MTCC 121 after 24 hrs by well diffusion method; assay type: functional
Staphylococcus aureus [2] = experiment: Antibacterial activity against Staphylococcus aureus MTCC 96 after 24 hrs by well diffusion method; assay type: functional
Staphylococcus aureus [3] = experiment: Antibacterial activity against Staphylococcus aureus MLS16 MTCC 2940 after 24 hrs by well diffusion method; assay type: functional
Micrococcus luteus [4] = experiment: Antibacterial activity against Micrococcus luteus MTCC 2470 after 24 hrs by well diffusion method; assay type: functional
Raoultella planticola [5] = experiment: Antibacterial activity against Klebsiella planticola MTCC 530 after 24 hrs by well diffusion method; assay type: functional
Escherichia coli [6] = experiment: Antibacterial activity against Escherichia coli MTCC 739 after 24 hrs by well diffusion method; assay type: functional
Pseudomonas aeruginosa [7] = experiment: Antibacterial activity against Pseudomonas aeruginosa MTCC 2453 after 24 hrs by well diffusion method; assay type: functional
Bacillus subtilis [8] = experiment: Bactericidal activity against Bacillus subtilis MTCC 121 incubated for 24 hrs followed by transfer of microbial suspension to Mueller Hinton agar plates and measured after 24 hrs post transfer; assay type: functional
Staphylococcus aureus [9] = experiment: Bactericidal activity against Staphylococcus aureus MTCC 96 incubated for 24 hrs followed by transfer of microbial suspension to Mueller Hinton agar plates and measured after 24 hrs post transfer; assay type: functional
Staphylococcus aureus [10] = experiment: Bactericidal activity against Staphylococcus aureus MLS16 MTCC 2940 incubated for 24 hrs followed by transfer of microbial suspension to Mueller Hinton agar plates and measured after 24 hrs post transfer; assay type: functional
Micrococcus luteus [11] = experiment: Bactericidal activity against Micrococcus luteus MTCC 2470 incubated for 24 hrs followed by transfer of microbial suspension to Mueller Hinton agar plates and measured after 24 hrs post transfer; assay type: functional
Raoultella planticola [12] = experiment: Bactericidal activity against Klebsiella planticola MTCC 530 incubated for 24 hrs followed by transfer of microbial suspension to Mueller Hinton agar plates and measured after 24 hrs post transfer; assay type: functional; details: MTCC 530, 24 h
Escherichia coli [13] = experiment: Bactericidal activity against Escherichia coli MTCC 739 incubated for 24 hrs followed by transfer of microbial suspension to Mueller Hinton agar plates and measured after 24 hrs post transfer; assay type: functional
Pseudomonas aeruginosa [14] = experiment: Bactericidal activity against Pseudomonas aeruginosa MTCC 2453 incubated for 24 hrs followed by transfer of microbial suspension to Mueller Hinton agar plates and measured after 24 hrs post transfer; assay type: functional
Bacillus subtilis [15] = experiment: Antibiofilm activity against Bacillus subtilis MTCC 121 after 24 hrs by crystal violet staining-based assay; assay type: functional, organism-based
Staphylococcus aureus [16] = experiment: Antibiofilm activity against Staphylococcus aureus MTCC 96 after 24 hrs by crystal violet staining-based assay; assay type: functional, organism-based
Staphylococcus aureus [17] = experiment: Antibiofilm activity against Staphylococcus aureus MLS16 MTCC 2940 after 24 hrs by crystal violet staining-based assay; assay type: functional, organism-based
Pseudomonas aeruginosa [18] = experiment: Antibiofilm activity against Pseudomonas aeruginosa MTCC 2453 after 24 hrs by crystal violet staining-based assay; assay type: functional, organism-based
Raoultella planticola [19] = experiment: Antibiofilm activity against Klebsiella planticola MTCC 530 after 24 hrs by crystal violet staining-based assay; assay type: functional, organism-based; details: Klebsiella planticola, MTCC 530, 24 h; read-out: IC50

| Structure (SMILES) | MIC (Bacillus subtilis [1]) | MIC (Staphylococcus aureus [2]) | MIC (Staphylococcus aureus [3]) | MIC (Micrococcus luteus [4]) | MIC (Escherichia coli [6]) | MIC (Pseudomonas aeruginosa [7]) | MIC (Raoultella planticola [5]) | MIC (Raoultella planticola [5]; MTCC 530, 24 h) [µg/mL] | MBC (Raoultella planticola [12]) [µg/mL] | IC50 (Raoultella planticola [19]) [µg/mL] | other results |
| --- | --- | --- | --- | --- | --- | --- | --- | --- | --- | --- | --- |
| COc1ccc(-c2nc(C(=O)NCc3ccco3)nc3nc(-c4ccccc4)cc(C(F)(F)F)c23)cc1 | inactive | inactive | inactive | inactive | inactive | inactive | inactive |  |  |  |  |
| COc1ccc(-c2nc(C(=O)N3CCN(CCO)CC3)nc3nc(-c4ccccc4)cc(C(F)(F)F)c23)cc1 | inactive | inactive | inactive | inactive | inactive | inactive | inactive |  |  |  |  |
| O=C(O)c1cn(C2CC2)c2cc(N3CCNCC3)c(F)cc2c1=O [CIPROFLOXACIN] |  |  |  |  |  |  |  | 0.9 (≈ 2.72 µM) | 0.58 (≈ 1.75 µM) | 0.29 (≈ 0.875 µM) | MBC (Bacillus subtilis [8]; MTCC 121, 24 h): 0.58 µg/mL (≈ 1.75 µM); MIC (Bacillus subtilis [1]; MTCC 121, 24 h): 0.9 µg/mL (≈ 2.72 µM); MIC (Staphylococcus aureus [2]; MTCC 96, 24 h): 0.9 µg/mL (≈ 2.72 µM); MIC (Staphylococcus aureus [3]; MLS16 MTCC 2940, 24 h): 0.9 µg/mL (≈ 2.72 µM); MIC (Micrococcus luteus [4]; MTCC 2470, 24 h): 0.9 µg/mL (≈ 2.72 µM); MIC (Escherichia coli [6]; MTCC 739, 24 h): 0.9 µg/mL (≈ 2.72 µM); MIC (Pseudomonas aeruginosa [7]; MTCC 2453, 24 h): 0.9 µg/mL (≈ 2.72 µM); MBC (Staphylococcus aureus [9]; MTCC 96, 24 h): 0.58 µg/mL (≈ 1.75 µM); MBC (Staphylococcus aureus [10]; MLS16 MTCC 2940, 24 h): 1.17 µg/mL (≈ 3.53 µM); MBC (Micrococcus luteus [11]; MTCC 2470, 24 h): 1.17 µg/mL (≈ 3.53 µM); MBC (Escherichia coli [13]; MTCC 739, 24 h): 0.58 µg/mL (≈ 1.75 µM); MBC (Pseudomonas aeruginosa [14]; MTCC 2453, 24 h): 1.17 µg/mL (≈ 3.53 µM); IC50 (Bacillus subtilis [15]; Bacillus subtilis, MTCC 121, 24 h, read-out: IC50): 0.23 µg/mL (≈ 0.694 µM); IC50 (Staphylococcus aureus [16]; Staphylococcus aureus, MTCC 96, 24 h, read-out: IC50): 0.21 µg/mL (≈ 0.634 µM); IC50 (Staphylococcus aureus [17]; Staphylococcus aureus, MLS16 MTCC 2940, 24 h, read-out: IC50): 0.24 µg/mL (≈ 0.724 µM); IC50 (Pseudomonas aeruginosa [18]; Pseudomonas aeruginosa, MTCC 2453, 24 h, read-out: IC50): 0.32 µg/mL (≈ 0.966 µM) |

Further lines, with some results ahead:

| MIC (Bacillus subtilis [1]) | MIC (Staphylococcus aureus [2]) | MIC (Staphylococcus aureus [3]) | MIC (Micrococcus luteus [4]) | MIC (Escherichia coli [6]) | MIC (Pseudomonas aeruginosa [7]) | Structure (SMILES) | MIC (Raoultella planticola [5]) | MIC (Raoultella planticola [5]; MTCC 530, 24 h) [µg/mL] | MBC (Raoultella planticola [12]) [µg/mL] | IC50 (Raoultella planticola [19]) [µg/mL] | other results |
| --- | --- | --- | --- | --- | --- | --- | --- | --- | --- | --- | --- |
| inactive | inactive | inactive | inactive | inactive | inactive | CCNC(=O)c1nc(-c2ccccc2)c2c(C(F)(F)F)cc(-c3ccccc3)nc2n1 |  | 31.2 (≈ 73.9 µM) |  |  |  |
| inactive | inactive | inactive | inactive | inactive | inactive | COc1ccc(-c2nc(C(=O)N3CCCC3)nc3nc(-c4ccccc4)cc(C(F)(F)F)c23)cc1 |  | 15.6 (≈ 32.6 µM) | 15.6 (≈ 32.6 µM) | 10.8 (≈ 22.6 µM) | MBC (Bacillus subtilis [8]): inactive; MBC (Staphylococcus aureus [9]): inactive; MBC (Staphylococcus aureus [10]): inactive; MBC (Micrococcus luteus [11]): inactive; MBC (Escherichia coli [13]): inactive; MBC (Pseudomonas aeruginosa [14]): inactive; IC50 (Bacillus subtilis [15]): Not Active; IC50 (Staphylococcus aureus [16]): Not Active; IC50 (Staphylococcus aureus [17]): Not Active; IC50 (Pseudomonas aeruginosa [18]): Not Active |
| inactive | inactive | inactive | inactive | inactive | inactive | COc1ccc(-c2nc(C(=O)NCc3ccccc3)nc3nc(-c4ccccc4)cc(C(F)(F)F)c23)cc1 | inactive |  |  |  |  |
